Experimental data taken from PubChem BioAssay (NCI).
Values joined by “and” are separate entries in the source; they are usually repeats but may differ in a detail not shown here. Identical values can stand only once.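 A five-concentration, 48-hour dose response in 96-well plates underlies each endpoint, interpolated linearly between surrounding concentrations. GI50: concentration for 50% inhibition of growth. The concentration for full growth arrest is given as TGI.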

Assays:
Experiment in all cases: NCI tumour cell line growth inhibition, 48 h
LXFL 529 NSCLC = system: LXFL 529 NSCLC
DMS 273 small cell lung = system: DMS 273 small cell lung
KM20L2 colon = system: KM20L2 colon
SNB-78 CNS = system: SNB-78 CNS
DMS 114 small cell lung = system: DMS 114 small cell lung
DLD-1 colon = system: DLD-1 colon
RXF-631 renal = system: RXF-631 renal
MDA-N = system: MDA-N
P388 leukemia = system: P388 leukemia
P388/ADR leukemia = system: P388/ADR leukemia
SN12K1 renal = system: SN12K1 renal

SMILES | TGI (LXFL 529 NSCLC) [µM] | TGI (DMS 273 small cell lung) [µM] | TGI (KM20L2 colon) | TGI (SNB-78 CNS) | TGI (DMS 114 small cell lung) | TGI (DLD-1 colon) [µM] | TGI (RXF-631 renal) | TGI (MDA-N) | also measured
CC(C)(C)c1cc(C(=O)O)c(C(c2ccccc2)c2ccccc2C(=O)O)c(C(=O)O)c1 (stereo unspecified) | > 100 | > 100 | > 100 µM | > 100 µM | > 100 µM | > 100 | – | – | –
CCCCOP1(=O)C=CC(Cl)=C(C)C1 (stereo unspecified) | 94.4 | – | 49.5 µM | – | 71.7 µM | – | > 100 µM | – | –
O=C1Cc2ccccc2CCc2ccccc21 | > 100 | > 100 | > 100 µM | > 100 µM | > 100 µM | > 100 | – | – | –
NC(=O)c1ncn(C2OC(CO)C(O)C2O)c1NC(=S)NC(=O)c1ccccc1 (stereo unspecified) | > 100 | > 100 | > 100 µM | > 100 µM | > 100 µM | > 100 | – | – | –
O=c1ncccn1C1OC(CO)C(O)C1F (stereo unspecified) | > 100 | > 100 | > 100 µM | > 100 µM | > 100 µM | > 100 | > 100 µM | – | GI50 (DLD-1 colon): > 100 µM
CN1C(=O)CC2(C)c3cc(C=O)ccc3N(C)C12 (stereo unspecified) | > 100 | – | > 100 µM | > 100 µM | > 100 µM | > 100 | > 100 µM | – | –
Cc1cc(C)c2nccc(NCCCN(C)C)c2c1[N+](=O)[O-] | – | – | – | – | – | – | – | > 100 µM | –
Cc1cc(N(CCC#N)CCC#N)ccc1/C=C/C(=O)Nc1ccccc1Cl | > 100 | > 100 | > 100 µM | – | > 100 µM | > 100 | – | – | –
CC1(C)Oc2ccccc2N2O[C@@H]3C(=O)N(c4ccccc4)C(=O)[C@@H]3C21c1ccccc1 (stereo partly specified) | > 100 | – | > 100 µM | 79.4 µM | 62.9 µM | 65.7 | – | – | –
N=C(N)SCC(=O)O | – | – | – | – | – | – | – | > 100 µM | –
Nc1nc(Cl)cc(NCCCCCCNc2cc(Cl)nc(N)n2)n1 | > 100 | > 100 | > 100 µM | – | – | > 100 | > 100 µM | – | –
CCCC(=O)Nc1cn(COC)c(C(=O)N2C[C@H]3C[C@@]34C2=CC(=O)c2[nH]cc(C)c24)n1 | – | – | – | – | – | – | – | 19.5 µM and 59.6 µM | GI50 (MDA-N): 7.62 µM
CCC1(Cl)C(=O)NC(=O)N(C2CC(O)C(CO)O2)C1N=[N+]=[N-] (stereo unspecified) | > 100 | > 100 | > 100 µM | > 100 µM | > 100 µM | > 100 | > 100 µM | – | –
C=CCN(N=O)C(=O)ON1C(=O)CCC1=O | > 100 | > 100 | > 100 µM | > 100 µM | > 100 µM | > 100 | > 100 µM | – | –
O=C(O)C(Cc1c[nH]c2ccccc12)N1C(=O)c2ccccc2C1=O (stereo unspecified) | – | – | – | – | – | – | – | > 100 µM | –
O=C(/C(=N/Nc1cn[nH]c(=O)c1Cl)c1ccccc1)c1ccccc1 | – | – | – | – | – | – | – | 32.8 µM | –
Nc1ccc2c(SCC(=O)Nc3ccccc3-c3ccccc3NC(=O)CSc3c4ccccc4nc4cc(N)ccc34)c3ccccc3nc2c1 | 41.3 | > 100 | > 93.5 µM | > 100 µM | 56.2 µM | 38.4 | > 100 µM | > 69.5 µM | –
COc1cc(-c2nn3c(=O)n(-c4ccc(Cl)cc4)c(=O)nc3s2)cc(OC)c1OC | – | > 100 | > 100 µM | 50 µM and > 100 µM | – | > 100 | 50 µM and > 100 µM | – | GI50 (KM20L2 colon): > 50 µM; GI50 (SNB-78 CNS): 8.88 µM; GI50 (DLD-1 colon): > 50 µM
CC12O[Te]34OC1(C)C(C)(O3)C2(C)O4 | 26.7 | 37.7 | 87.5 µM | 65.9 µM | 25.7 µM | 30.4 | – | – | –
O=C1Nc2ccc(Br)cc2C1=Nc1ccc(Cl)cc1 | – | – | – | – | – | – | – | 23.5 µM | –
O=C1c2c(O)ccc(O)c2C(=O)c2c(NCCNCCO)ccc(NCCNCCO)c21 | – | 0.57 | 8.09 µM | 1.66 µM | 0.263 µM | 4.87 | – | 1.48 µM and 1.66 µM | TGI (P388 leukemia): 0.0821 µM; TGI (P388/ADR leukemia): 6 µM; TGI (SN12K1 renal): 0.305 µM

SMILES | TGI (LXFL 529 NSCLC) [µM] | TGI (DMS 273 small cell lung) [µM] | TGI (KM20L2 colon) | TGI (SNB-78 CNS) | TGI (DMS 114 small cell lung) | TGI (DLD-1 colon) [µM] | TGI (RXF-631 renal) | TGI (MDA-N) | also measured
OCCN(CCO)c1ncnc2c1sc(=S)n2-c1ccccc1 | > 100 | > 100 | > 100 µM | > 100 µM | > 100 µM | > 100 | – | – | –
C(/C=C/N1CCCC1)=C\c1nc(N2CCCC2)c2ccccc2n1 | 28 | 34.2 | 51.7 µM | 43.6 µM | 33.2 µM | 37.1 | 41.3 µM | – | –
COC(=O)Cc1cc(=O)oc2c1C(=O)CCC2 | > 100 | > 100 | > 100 µM | > 100 µM | > 100 µM | > 100 | – | – | –
COC(=O)C1=C(C(=O)OC)C(C(=O)OC)C(C(=O)OC)C(C(=O)OC)(C(=O)OC)C(C(=O)OC)=C1C(=O)OC (stereo unspecified) | 21.8 | – | 35.9 µM | 44 µM | 23.2 µM | 6.98 | – | 31.2 µM | –
O=C1[C@H]2ON(c3ccccc3)C(c3cccc([N+](=O)[O-])c3)[C@H]2C(=O)N1c1ccc(Cc2ccc(N3C(=O)[C@@H]4ON(c5ccccc5)C(c5cccc([N+](=O)[O-])c5)[C@@H]4C3=O)cc2)cc1 (stereo partly specified) | > 100 | > 100 | > 100 µM | > 100 µM | > 100 µM | > 100 | – | – | –
COc1cc2c3c(c1OC)/C(=N/OS(=O)(=O)c1ccc(C)cc1)CC3N(S(=O)(=O)c1ccc(C)cc1)CC2 (stereo unspecified) | > 100 | > 100 | > 100 µM | > 100 µM | > 100 µM | > 100 | > 100 µM | – | –
CCOc1ccccc1NC(=O)CCC(=O)NN | > 100 | > 100 | > 100 µM | > 100 µM | – | > 100 | > 100 µM | – | –
COC(=O)C1=C(C(=O)OC)N(C(C)C)[C@H]2C(C(=O)OC)=C(C(=O)OC)N(C(C)C)[C@@H]12 | > 100 | > 100 | > 100 µM | > 100 µM | > 100 µM | > 100 | > 100 µM | – | –
O=C1OC(c2ccc(Cl)c3ccccc23)c2ccccc21 (stereo unspecified) | – | – | > 100 µM | > 100 µM | > 100 µM | – | > 100 µM | – | –
COc1cc2c(c(OC)c1OC)-c1ccc(SC)c(=O)cc1[C@@H](NC(=O)c1ccc(F)cc1)CC2 | > 100 | 44.7 | 0.0427 µM and < 0.01 µM | > 100 µM | 0.0636 µM and < 0.01 µM | > 100 | – | – | GI50 (LXFL 529 NSCLC): < 0.01 µM; GI50 (KM20L2 colon): < 0.01 µM; GI50 (SNB-78 CNS): < 0.01 µM; GI50 (DMS 114 small cell lung): 0.0267 µM and < 0.01 µM; GI50 (DLD-1 colon): < 0.01 µM
COc1cc(/C=C2/C(=O)N(C(=O)c3ccccc3O)N=C2C)ccc1O | > 100 | – | > 100 µM | – | 7.73 µM | > 100 | – | > 100 µM | –
C=C1C(=O)C23CC1CCC2C12CO[C@@]3(O)[C@@H](O)C1C(C)(C)C=CC2=O (stereo partly specified) | – | 1.3 | 4.39 µM | 2.23 µM | – | 2.22 | 2.33 µM | 7.71 µM | –
C/C(N=NC(=S)N1CCCCCC1)=C1\C=CC=CN1O | > 100 | 42.1 | > 100 µM | > 100 µM | 3.45 µM | > 100 | > 100 µM | > 100 µM | –
CCOC(=O)c1cc(C(=O)O)c(=O)n2c1[nH]c1ccccc12 | > 100 | > 100 | > 100 µM | > 100 µM | > 100 µM | > 100 | > 100 µM | – | –
CCCC/C=C1\CCC(CN2CCCC2)C1=O (stereo unspecified) | 3.21 | 34.3 | 28.7 µM | 57.2 µM | 31.8 µM | 12.8 | 32.4 µM | – | –
O=C(NOC(=O)c1ccc([N+](=O)[O-])cc1)c1ccc(Cl)cc1 | > 100 | – | > 100 µM | 65.3 µM | > 100 µM | > 100 | > 100 µM | – | –
COc1ccc(C(=O)/C=C/c2ccc(OCCCCCCCCCCOc3ccc(/C=C/C(=O)c4ccc(OC)c(OC)c4)cc3)cc2)c(OC)c1 | – | – | – | – | – | – | – | > 100 µM | –
C=C1c2ccccc2N(S(=O)(=O)c2ccc(C)cc2)C12CCCCC2 | > 100 | > 100 | > 100 µM | – | > 100 µM | > 100 | – | – | –
O=C(O)C(CS)N=Cc1nc(-c2ccccc2)oc1O (stereo unspecified) | > 100 | > 100 | > 100 µM | > 100 µM | > 100 µM | > 100 | – | – | –
Cc1nnc(N=Nc2c(O)[nH]c3ccccc23)[nH]c1=O | – | – | – | – | – | – | – | > 100 µM | –
